Test results published in ChEMBL document CHEMBL5506020 (J Med Chem, 2024).
Calls of active or inactive are those of the source. The calls are words filed in the database; no cut-off is given here.

How the values were obtained:
[1] = Antiproliferative activity against human MOLM16 cells incubated for 72 hrs by Cell-Titer Glo assay; conditions: MOLM16, 72 h
MOLM-13 [2] = experiment: Antiproliferative activity against human MOLM-13 cells incubated for 72 hrs by Cell-Titer Glo assay; conditions: MOLM-13, 72 h
MV4-11 [3] = experiment: Antiproliferative activity against human MV4-11 cells incubated for 120 hrs by Cell-Titer Glo assay; conditions: MV4-11, 120 h
EOL1 [4] = experiment: Antiproliferative activity against human EOL1 cells
MV4-11 [5] = experiment: Antitumor activity against human MV4-11 cells xenografted in NOD-SCID mouse assessed as tumor growth inhibition at 10 mg/kg, po QD for 2 weeks; format: functional; conditions: MV4-11, 336 h, read-out: TGI
THP-1 [6] = experiment: Antiproliferative activity against human THP-1 cells
KG-1 [7] = experiment: Antiproliferative activity against human KG-1 cells
MV4-11 [8] = experiment: Downregulation of BRD4 protein level in human MV4-11 cells at 10 nM incubated for 6 hrs by proteomic analysis; format: functional, cell-based
MV4-11 [9] = experiment: Downregulation of CDK5 protein in human MV4-11 cells at 10 nM incubated for 6 hrs by proteomic analysis; format: functional, cell-based
MV4-11 [10] = experiment: Downregulation of c-Myc protein level in human MV4-11 cells at 50 nM incubated for 24 hrs by Western blotting analysis; format: functional, cell-based
MV4-11 [11] = experiment: Downregulation of ZFP91 protein level in human MV4-11 cells at 10 nM incubated for 6 hrs by proteomic analysis; format: functional, cell-based
MV4-11 [12] = experiment: Downregulation of TRIM24 protein level in human MV4-11 cells at 10 nM incubated for 6 hrs by proteomic analysis; format: functional, cell-based
MV4-11 [13] = experiment: Downregulation of GSPT1 protein level in human MV4-11 cells at 10 nM incubated for 6 hrs by proteomic analysis; format: functional, cell-based
MV4-11 [14] = experiment: Downregulation of IRF4 protein in human MV4-11 cells at 10 nM incubated for 6 hrs by proteomic analysis; format: functional, cell-based
Mus musculus [15] = experiment: In vivo induction of p300 degradation in NOD/SCID mouse tumor xenografted with human MV4-11 cells at 2 to 5 mg/kg, ip administered every other day for 2 weeks by immunoblotting analysis; format: functional, organism-based; conditions: dose 2-5 mg/kg
THP-1 [16] = experiment: Antiproliferative activity against human THP-1 cells upto 10 uM; format: functional, cell-based
MV4-11 [17] = experiment: Downregulation of IKZF1 mRNA level in human MV4-11 cells at 100 nM incubated for 6 hrs by qRT-PCR analysis; format: functional, cell-based
MV4-11 [18] = experiment: Downregulation of KRAS protein in human MV4-11 cells at 10 nM incubated for 6 hrs by proteomic analysis; format: functional, cell-based
[19] = Toxicity in NOD/SCID mouse xenografted with human MV4-11 cells assessed as aggregation of multinucleated giant cells in spleen at 2 to 5 mg/kg, ip administered every other day for 2 weeks by H and E staining based assay; format: organism-based; conditions: in vivo, 336 h, dose 2-5 mg/kg
MV4-11 [20] = experiment: Antitumor activity against human MV4-11 cells xenografted in NOD-SCID mouse assessed as tumor growth inhibition at 2 mg/kg, ip administered every other day for 2 weeks; format: functional; conditions: MV4-11, 336 h, read-out: TGI
MV4-11 [21] = experiment: Downregulation of STAT2 protein in human MV4-11 cells at 10 nM incubated for 6 hrs by proteomic analysis; format: functional, cell-based
MV4-11 [22] = experiment: Antitumor activity against human MV4-11 cells xenografted in NOD-SCID mouse assessed as tumor growth inhibition at 5 mg/kg, ip administered every other day for 2 weeks; format: functional; conditions: MV4-11, 336 h, read-out: TGI
[23] = Toxicity in NOD/SCID mouse xenografted with human MV4-11 cells assessed as effect on kidney at 2 to 5 mg/kg, ip administered every other day for 2 weeks by H and E staining based assay; format: organism-based; conditions: in vivo, 336 h, dose 2-5 mg/kg
EOL1 [24] = experiment: Antiproliferative activity against human EOL1 cells upto 10 uM; format: functional, cell-based
MV4-11 [25] = experiment: Downregulation of SMARCA4 protein level in human MV4-11 cells at 10 nM incubated for 6 hrs by proteomic analysis; format: functional, cell-based
KG-1 [26] = experiment: Antiproliferative activity against human KG-1 cells upto 10 uM; format: functional, cell-based
MV4-11 [27] = experiment: Downregulation of IKZF1 level in human MV4-11 cells at 10 uM incubated for 6 hrs by Western blotting analysis; format: functional, cell-based
MV4-11 [28] = experiment: Downregulation of CBP mRNA level in human MV4-11 cells at 100 nM incubated for 6 hrs by qRT-PCR analysis; format: functional, cell-based
MV4-11 [29] = experiment: Downregulation of STAT1 protein in human MV4-11 cells at 10 nM incubated for 6 hrs by proteomic analysis; format: functional, cell-based
[30] = Toxicity in NOD/SCID mouse xenografted with human MV4-11 cells assessed as lymphocyte infiltration in liver at 2 to 5 mg/kg, ip administered every other day for 2 weeks by H and E staining based assay; format: organism-based; conditions: in vivo, 336 h, dose 2-5 mg/kg
MV4-11 [31] = experiment: Downregulation of BRD2 protein level in human MV4-11 cells at 10 nM incubated for 6 hrs by proteomic analysis; format: functional, cell-based
MOLM-13 [32] = experiment: Downregulation of c-Myc protein level in human MOLM-13 cells at 50 nM incubated for 24 hrs by Western blotting analysis; format: functional, cell-based
MV4-11 [33] = experiment: Downregulation of TP53RK protein in human MV4-11 cells at 10 nM incubated for 6 hrs by proteomic analysis; format: functional, cell-based
[34] = Toxicity in NOD/SCID mouse xenografted with human MV4-11 cells assessed as body weight loss at 2 to 5 mg/kg, ip administered every other day for 2 weeks; format: organism-based; conditions: in vivo, 336 h, dose 2-5 mg/kg
MV4-11 [35] = experiment: Downregulation of p300 mRNA level in human MV4-11 cells at 100 nM incubated for 6 hrs by qRT-PCR analysis; format: functional, cell-based
Mus musculus [36] = experiment: In vivo induction of CBP degradation in NOD/SCID mouse tumor xenografted with human MV4-11 cells at 2 to 5 mg/kg, ip administered every other day for 2 weeks by immunoblotting analysis; format: functional, organism-based; conditions: dose 2-5 mg/kg
[37] = Toxicity in NOD/SCID mouse xenografted with human MV4-11 cells assessed as effect on lung at 2 to 5 mg/kg, ip administered every other day for 2 weeks by H and E staining based assay; format: organism-based; conditions: in vivo, 336 h, dose 2-5 mg/kg
MOLM-16 = experiment: Downregulation of c-Myc protein level in human MOLM16 cells at 50 nM incubated for 24 hrs by Western blotting analysis; format: functional, cell-based
MV4-11 [38] = experiment: Downregulation of BRD3 protein level in human MV4-11 cells at 10 nM incubated for 6 hrs by proteomic analysis; format: functional, cell-based
[39] = Toxicity in NOD/SCID mouse xenografted with human MV4-11 cells assessed as effect on heart at 2 to 5 mg/kg, ip administered every other day for 2 weeks by H and E staining based assay; format: organism-based; conditions: in vivo, 336 h, dose 2-5 mg/kg
[40] = molecular target: Protein cereblon/Histone acetyltransferase p300 (Homo sapiens) (UniProt Q09472+Q96SW2); experiment: PROTAC activity at CRBN/p300 in human MV4-11 cells assessed as p300 degradation at 10 to 50 nM incubated for 24 hrs by Western blotting analysis; format: cell-based; conditions: dose 10-50 nM
Chain of Protein cereblon/Histone acetyltransferase p300 (Homo sapiens) (Q09472 2-2414 limits assumed): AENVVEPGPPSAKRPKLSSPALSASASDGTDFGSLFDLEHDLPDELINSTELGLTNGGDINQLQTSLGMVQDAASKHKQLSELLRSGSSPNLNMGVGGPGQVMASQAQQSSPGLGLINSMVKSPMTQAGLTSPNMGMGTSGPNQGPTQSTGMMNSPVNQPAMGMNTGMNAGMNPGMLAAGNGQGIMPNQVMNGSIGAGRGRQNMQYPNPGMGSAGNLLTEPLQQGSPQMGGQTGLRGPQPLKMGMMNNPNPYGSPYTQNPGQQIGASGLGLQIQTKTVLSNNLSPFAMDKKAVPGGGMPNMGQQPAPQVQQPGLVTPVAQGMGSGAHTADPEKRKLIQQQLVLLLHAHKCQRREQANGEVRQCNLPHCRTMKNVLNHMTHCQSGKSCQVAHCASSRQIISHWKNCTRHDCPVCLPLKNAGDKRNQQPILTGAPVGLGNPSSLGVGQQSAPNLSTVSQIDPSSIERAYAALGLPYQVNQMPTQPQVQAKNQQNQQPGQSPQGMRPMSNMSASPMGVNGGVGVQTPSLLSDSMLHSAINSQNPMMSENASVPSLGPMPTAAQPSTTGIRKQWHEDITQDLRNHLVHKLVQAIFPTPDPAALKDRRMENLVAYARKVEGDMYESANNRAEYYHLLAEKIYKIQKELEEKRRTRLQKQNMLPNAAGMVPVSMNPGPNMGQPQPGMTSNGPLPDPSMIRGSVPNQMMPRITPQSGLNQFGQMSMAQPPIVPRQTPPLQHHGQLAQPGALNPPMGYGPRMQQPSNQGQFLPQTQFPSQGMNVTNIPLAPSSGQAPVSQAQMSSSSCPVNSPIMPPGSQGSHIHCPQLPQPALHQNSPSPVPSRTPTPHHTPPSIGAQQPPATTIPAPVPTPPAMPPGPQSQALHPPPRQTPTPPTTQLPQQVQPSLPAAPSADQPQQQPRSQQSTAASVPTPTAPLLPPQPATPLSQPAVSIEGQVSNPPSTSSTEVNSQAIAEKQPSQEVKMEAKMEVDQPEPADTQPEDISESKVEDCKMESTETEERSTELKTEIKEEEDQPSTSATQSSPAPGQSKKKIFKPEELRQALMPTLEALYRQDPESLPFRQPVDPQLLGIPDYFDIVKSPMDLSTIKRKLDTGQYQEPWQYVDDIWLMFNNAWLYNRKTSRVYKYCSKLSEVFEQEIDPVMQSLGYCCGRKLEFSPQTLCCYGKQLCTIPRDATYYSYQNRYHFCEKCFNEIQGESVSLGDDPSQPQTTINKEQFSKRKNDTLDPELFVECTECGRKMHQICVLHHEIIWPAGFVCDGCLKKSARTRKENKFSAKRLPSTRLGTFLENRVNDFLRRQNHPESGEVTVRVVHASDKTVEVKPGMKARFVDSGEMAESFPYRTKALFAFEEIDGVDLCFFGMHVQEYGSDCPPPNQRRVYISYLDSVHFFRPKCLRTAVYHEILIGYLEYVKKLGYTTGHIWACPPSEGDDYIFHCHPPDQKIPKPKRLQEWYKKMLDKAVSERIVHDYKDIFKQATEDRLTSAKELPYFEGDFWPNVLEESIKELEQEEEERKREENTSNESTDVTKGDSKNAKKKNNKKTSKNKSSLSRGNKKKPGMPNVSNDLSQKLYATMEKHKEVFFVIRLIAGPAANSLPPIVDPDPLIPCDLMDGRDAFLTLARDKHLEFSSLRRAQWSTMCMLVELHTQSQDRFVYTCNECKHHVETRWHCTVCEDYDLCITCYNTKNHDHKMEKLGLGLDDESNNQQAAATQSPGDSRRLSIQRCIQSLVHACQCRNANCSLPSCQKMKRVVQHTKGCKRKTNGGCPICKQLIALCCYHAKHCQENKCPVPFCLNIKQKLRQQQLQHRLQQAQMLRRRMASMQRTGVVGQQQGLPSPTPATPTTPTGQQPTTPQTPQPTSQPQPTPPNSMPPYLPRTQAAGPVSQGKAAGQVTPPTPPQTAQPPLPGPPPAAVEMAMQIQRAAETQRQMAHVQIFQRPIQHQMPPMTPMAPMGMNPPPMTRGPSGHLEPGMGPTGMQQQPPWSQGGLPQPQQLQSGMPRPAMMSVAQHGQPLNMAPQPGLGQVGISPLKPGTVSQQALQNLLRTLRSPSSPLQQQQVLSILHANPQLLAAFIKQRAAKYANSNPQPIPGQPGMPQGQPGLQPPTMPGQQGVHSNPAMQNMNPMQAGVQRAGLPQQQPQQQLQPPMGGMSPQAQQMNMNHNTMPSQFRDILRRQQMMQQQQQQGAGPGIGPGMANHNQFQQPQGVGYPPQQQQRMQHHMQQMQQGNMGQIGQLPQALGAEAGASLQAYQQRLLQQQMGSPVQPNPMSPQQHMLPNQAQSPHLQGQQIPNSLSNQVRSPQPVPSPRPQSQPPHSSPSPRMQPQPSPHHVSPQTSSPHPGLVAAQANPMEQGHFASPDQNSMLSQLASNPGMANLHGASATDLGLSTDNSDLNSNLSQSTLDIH
Chain of Protein cereblon/Histone acetyltransferase p300 (Homo sapiens) (Q96SW2 whole entry partner): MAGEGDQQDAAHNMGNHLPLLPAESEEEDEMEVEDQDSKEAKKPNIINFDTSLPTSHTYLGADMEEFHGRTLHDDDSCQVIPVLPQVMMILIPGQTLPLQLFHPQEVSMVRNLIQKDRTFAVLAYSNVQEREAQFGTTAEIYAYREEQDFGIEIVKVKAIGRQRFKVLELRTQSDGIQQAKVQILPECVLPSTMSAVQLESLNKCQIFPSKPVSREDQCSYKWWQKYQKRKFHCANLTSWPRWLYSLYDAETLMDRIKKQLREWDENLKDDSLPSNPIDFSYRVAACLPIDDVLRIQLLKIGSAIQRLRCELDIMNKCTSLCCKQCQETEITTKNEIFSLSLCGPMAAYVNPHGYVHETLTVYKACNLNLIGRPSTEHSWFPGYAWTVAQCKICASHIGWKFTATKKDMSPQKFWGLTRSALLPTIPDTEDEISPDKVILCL

Cc1noc(C)c1-c1ccc2c(c1)nc([C@@H]1CCCC(=O)N1c1ccc(F)c(F)c1)n2C1CCN(CC(=O)Nc2ccc(-c3ccc(CNc4cccc5c4C(=O)N(C4CCC(=O)N(C)C4=O)C5=O)cc3)nc2)CC1 (stereo partly specified)
IC50 [1]: 200 nM
IC50 (MOLM-13 [2]): > 1000 nM
IC50 (MV4-11 [3]): 86.7 nM

CO[C@H]1CC[C@H](n2c([C@@H]3CCCC(=O)N3c3ccc(F)c(F)c3)nc3cc(-c4c(C)noc4C)ccc32)CC1 [INOBRODIB]
IC50 (EOL1 [4]): < 3000 nM
inhibition in vivo at 10 mg/kg (MV4-11 [5]): 65%
IC50 (THP-1 [6]): < 3000 nM
IC50 [1]: 12.9 nM
IC50 (KG-1 [7]): < 3000 nM
IC50 (MOLM-13 [2]): 102 nM
IC50 (MV4-11 [3]): 20.4 nM

Cc1noc(C)c1-c1ccc2c(c1)nc([C@@H]1CCCC(=O)N1c1ccc(F)c(F)c1)n2C1CCN(CC(=O)Nc2ccc(-c3ccc(CNc4cccc5c4C(=O)N(C4CCC(=O)NC4=O)C5=O)cc3)nc2)CC1 (stereo partly specified)
Activity (MV4-11 [8]): inactive
Activity (MV4-11 [9]): Active
Activity (MV4-11 [10]): Active
Activity (MV4-11 [11]): inactive
Activity (MV4-11 [12]): inactive
Activity (MV4-11 [13]): inactive
Activity (MV4-11 [14]): Active
Activity (Mus musculus [15]): Active
Activity (THP-1 [16]): inactive
Activity (MV4-11 [17]): Active
Activity (MV4-11 [18]): Active
Activity [19]: Toxic
inhibition in vivo at 2 mg/kg (MV4-11 [20]): 53%
Activity (MV4-11 [21]): Active
inhibition in vivo at 5 mg/kg (MV4-11 [22]): 88%
Activity [23]: Non-Toxic
Activity (EOL1 [24]): inactive
Activity (MV4-11 [25]): inactive
IC50 [1]: 4.6 nM
Activity (KG-1 [26]): inactive
Activity (MV4-11 [27]): Active
Activity (MV4-11 [28]): inactive
Activity (MV4-11 [29]): Active
Activity [30]: Toxic
IC50 (MOLM-13 [2]): 26.9 nM
Activity (MV4-11 [31]): inactive
Activity (MOLM-13 [32]): Active
Activity (MV4-11 [33]): Active
Activity [34]: Non-Toxic
Activity (MV4-11 [35]): inactive
Activity (Mus musculus [36]): Active
Activity [37]: Non-Toxic
Activity (MOLM-16): Active
Activity (MV4-11 [38]): inactive
IC50 (MV4-11 [3]): 1.8 nM
Activity [39]: Non-Toxic

Cc1noc(C)c1-c1ccc2c(c1)nc([C@@H]1CCCC(=O)N1c1ccc(F)c(F)c1)n2C1CCN(CC(=O)Nc2ccc(-c3ccc(CNc4cccc5c4C(=O)N(C4CCC(=O)NC4=O)C5=O)cc3)cc2)CC1 (stereo partly specified)
Activity (MV4-11 [10]): Active
IC50 [1]: 14.4 nM
IC50 (MOLM-13 [2]): 137 nM
Activity (MOLM-13 [32]): Active
Activity (MOLM-16): Active
IC50 (MV4-11 [3]): 5.7 nM

Cc1noc(C)c1-c1ccc2c(c1)nc([C@@H]1CCCC(=O)N1c1ccc(F)c(F)c1)n2C1CCN(CC(=O)Nc2cnc(-c3ccc(CNc4cccc5c4C(=O)N(C4CCC(=O)N(C)C4=O)C5=O)cc3)nc2)CC1 (stereo partly specified)
IC50 [1]: 45.8 nM
IC50 (MOLM-13 [2]): > 1000 nM
IC50 (MV4-11 [3]): 44.2 nM

Cc1noc(C)c1-c1ccc2c(c1)nc([C@@H]1CCCC(=O)N1c1ccc(F)c(F)c1)n2C1CCN(CC(=O)NCc2ccc(CNc3cccc4c3C(=O)N(C3CCC(=O)NC3=O)C4=O)cc2)CC1 (stereo partly specified)
Activity [40]: Active
IC50 (MV4-11 [3]): 1220 nM

Cc1noc(C)c1-c1ccc2c(c1)nc([C@@H]1CCCC(=O)N1c1ccc(F)c(F)c1)n2C1CCN(CC(=O)Nc2ccc(CC3CCN(c4cccc5c4C(=O)N(C4CCC(=O)NC4=O)C5=O)CC3)cc2)CC1 (stereo partly specified)
Activity [40]: Active
IC50 (MV4-11 [3]): 273 nM

Cc1noc(C)c1-c1ccc2c(c1)nc([C@@H]1CCCC(=O)N1c1ccc(F)c(F)c1)n2C1CCN(CC(=O)NCCOCCOCCOCCNc2ccc3c(c2)C(=O)N(C2CCC(=O)NC2=O)C3=O)CC1 (stereo partly specified)
Activity [40]: inactive
IC50 (MV4-11 [3]): > 10000 nM
